Data: publication PMC11053681, “Gold(I) and Silver(I) Complexes Containing Hybrid Sulfonamide/Thiourea Ligands as Potential Leishmanicidal Agents” (Pharmaceutics, 2024)
Where two headings read alike, the source gives them in different places.

What was measured:
Leishmania infantum = assay: Leishmanicidal activity against promastigotes (resazurin); format: cell-based; details: for IC50: promastigote form, 24 h treatment, resazurin, read-out: IC50 L. infantum
Experimental: (§1) The Leishmania infantum and Leishmania braziliensis strains were maintained in Schneider medium supplemented with 20% of SFB (Schneider 20%), cultivated in […] bottles and stored at 28 °C in a BOD oven. For the assays, parasites at the 5th day stationary growth phase were used.
(§2) The promastigotes metacyclic form of Leishmania infantum and Leishmania braziliensis were first filtered with an insulin syringe to break up rosettes and, then, were isolated from the culture in the stationary phase by centrifugation of 400× g for 4 min at a temperature of 4 °C [53]. The supernatant was subjected to a new centrifugation, heavier, of 2000× g for 30 min, also at 4 °C. The supernatant was discarded and the cell pallet formed from this centrifugation was resuspended in 10 mL of 10% Schneider medium. The process ensured the removal of cellular debris and dead parasites, as well as possible crystals from the culture medium, so that the quality of the experiment was guaranteed. Then, the promastigotes were diluted to 1:10 in paraformaldehyde (PFA) for counting in a Neubauer Chamber, with the concentrations adjusted for each experiment.
(§3) An amount of 1 × 10^7 parasites per well was used. The parasites were plated in 96-well plates. Then, the compounds were added in triplicate, starting at a concentration of 500 µM, with serial dilutions being performed up to a concentration of 3.9 µM [53]. The treatment was carried out for 24 h and, after adding 5 µL of resazurin, the fluorescence was read using a Enspire model spectrofluorometer (Perkin-Elmer, Waltham, MA, USA).

Leishmania braziliensis = assay: as above; format: cell-based; details: for IC50: promastigote form, 24 h treatment, resazurin, read-out: IC50 L. braziliensis
Experimental: as §1, §2, §3

[1] = Solubility in organic solvents; format: physicochemical
Vero cells [2] = assay: Cytotoxicity assay on Vero cells (resazurin); format: cell-based, African green monkey; details: 24 h treatment
Experimental: For the experiment, Vero cells (ATCC CRL-1587) were used in Roswell Parl Memorial Institute (RPMI) medium with 10% fetal bovine serum (FBS) (RPMI 10%) and 20 μg/mL of Gentamicin. They were cultivated in culture bottles of […] and kept in an oven at 37 °C with 5% carbon dioxide (CO2). When picked or used on the day of the experiment, the cells were detached from the wall of the bottles with saline and 1X trypsin/EDTA. To find out how many cells there were in the bottle, it was diluted in Turkey liquid and then we proceeded with the counting in the Neubauer Chamber to calculate the desired concentrations. The Vero cells were plated at […] cells per well, in 96-well plates, and kept in an incubator with 5% CO2 at 37 °C for 24 h. Then, the compounds were added in triplicate, starting at a concentration of 500 µM, with serial dilution being performed up to a concentration of 3.9 µM [54]. The treatment was carried out for 24 h, and, after adding 5 µL of resazurin, the fluorescence was read using a spectrofluorometer (EnSpire Perkin-Elmer, Waltham, MA, USA).

Vero cells [3] = system: Vero cells; design: method as in PMID 31152929; details: value for the reference drug in Table 5; cited from earlier work

| Compound | IC50 (Leishmania infantum) | SI L. infantum (Leishmania infantum; selectivity index = CC50 (Vero) / IC50 (L. infantum promastigotes)) | IC50 (Leishmania braziliensis) | SI L. braziliensis (Leishmania braziliensis; selectivity index = CC50 (Vero) / IC50 (L. braziliensis promastigotes)) | Solubility in solvents, in words [1] | CC50 (Vero cells [2]) | CC50 (Vero cells [3]) |
| --- | --- | --- | --- | --- | --- | --- | --- |
| Cc1ccc(S(=O)(=O)NNC(Nc2ccc(Cl)cc2)=[S][Au+][S]=C(NNS(=O)(=O)c2ccc(C)cc2)Nc2ccc(Cl)cc2)cc1.[Cl-] [Au4, [Au(HL4^ClPh)2]Cl] | 38.18 ± 0.158 µM | 0.84 | 277.6 ± 0.163 µM | 0.12 | low solubility | 32 µM |  |
| Glucantime [reference compound] | 113 to 130 µM |  | 176 to 192 µM |  |  |  | 1630 µM |
